Reference: patent US20100076023A1, “AMORPHOUS SOLID COMPOSITION CONTAINING A PYRAZOLE-3-CARBOXAMIDE IN AMORPHOUS FORM AND STABILISING CARRIERS” (SANOFI-AVENTIS, priority 2007, published 2010)
In brackets after ≈: the same amount, converted by molar mass.

How the values were obtained:
[1] = stability under stressing conditions (100° C., X-ray powder diffractometry); format: physicochemical; conditions: same stressing conditions
Protocol: The apparatus used is a Bragg-Brentano-type DT 500 diffractometer from Siemens®. The line used is Kα1 of copper obtained at an accelerating voltage of 30 mA-40 kV. The diffractograms are recorded for angles of between 2° and 40° at the rate of 1°.min^−1 in Bragg 2-theta.
The physicochemical stability of the solid solution of powder obtained is determined at 100° C. without a controlled atmosphere, for 52 days. Several samples are placed in an oven adjusted to the temperature of 100° C. and analyzed at various times by X-ray powder diffractometry.
The physicochemical stability of the solid solution of Example 2 is determined at 100° C. without a controlled atmosphere, for 28 days. Several samples are placed in an oven adjusted to the temperature of 100° C., and are analyzed at various times by powder X-ray diffractometry.

[2] = comparative tests on intrinsic dissolution; format: physicochemical; conditions: Acetonitrile/H2O (60/40), 500 ml, 37° C., 75 revolutions/minute, pellets 0.5 cm^2, UV at 246 nm
Protocol: A. Tests for evaluating the rate of intrinsic dissolution are carried out with the amorphous rimonabant obtained in Example 9 and the rimonabant in its crystalline form.
These tests are carried out under the following conditions: • Solution: Acetonitrile/H2O (60/40) • Volume: 500 ml • Temperature: 37° C. • Rotation speed: 75 revolutions/minute • Surface area of the pellets: 0.5 cm^2 • Compressive force on the pellets: 2 tonnes, 20 seconds • Assay method: UV at 246 nm • Equipment: Vankel “VK700”-Kontron “Uvikon 941+”
B. Tests are carried out with the amorphous surinabant obtained in Example 10 and the surinabant in its crystalline form. The test conditions are identical to those of the comparative tests carried out for rimonabant (see preceding section A).

[3] = water-solubility at pH 6.5; format: physicochemical
Protocol: (§1) These compounds are molecules which are relatively water-insoluble; their water-solubilities are respectively 0.1 μg/ml and 1 μg/l at pH=6.5. Furthermore, these compounds have high membrane permeability coefficients: respectively 78×10^−7 cm/s and 96×10^−7 cm/s on the Caco-2 cell model, as described by M. G. Gres et al., in Pharmaceutical Research, 1998, 15(5), 726-733.

[4] = membrane permeability on the Caco-2 cell model; format: in vitro ADME; conditions: human; Caco-2 cell model (Gres et al.); read-out: membrane permeability coefficient
Protocol: as §1

SMILES: CCc1c(C(=O)NN2CCCCC2)nn(-c2ccc(Cl)cc2Cl)c1-c1ccc(Br)cc1 [amorphous surinabant, N-piperidino-5-(4-bromophenyl)-1-(2,4-dichlorophenyl)-4-ethylpyrazole-3-carboxamide]
- time in which it becomes completely crystalline [1]: ≤ 24 h
- rate of intrinsic dissolution [2]: 0.85 mg.min^−1.cm^−2

SMILES: Cc1c(C(=O)NN2CCCCC2)nn(-c2ccc(Cl)cc2Cl)c1-c1ccc(Cl)cc1 [crystalline rimonabant, N-Piperidino-5-(4-chlorophenyl)-1-(2,4-dichlorophenyl)-4-methylpyrazole-3-carboxamide]
- rate of intrinsic dissolution [2]: 0.7 mg.min^−1.cm^−2

SMILES: Cc1c(C(=O)NN2CCCCC2)nn(-c2ccc(Cl)cc2Cl)c1-c1ccc(Cl)cc1 [amorphous rimonabant, N-Piperidino-5-(4-chlorophenyl)-1-(2,4-dichlorophenyl)-4-methylpyrazole-3-carboxamide]
- rate of intrinsic dissolution [2]: 1.3 mg.min^−1.cm^−2

SMILES: Cc1c(C(=O)NN2CCCCC2)nn(-c2ccc(Cl)cc2Cl)c1-c1ccc(Cl)cc1 [rimonabant, N-Piperidino-5-(4-chlorophenyl)-1-(2,4-dichlorophenyl)-4-methylpyrazole-3-carboxamide]
- solubility [3]: 0.1 µg/mL (≈ 0.216 µM)
- Papp [4]: 7.8 ×10⁻⁶ cm/s

SMILES: CCc1c(C(=O)NN2CCCCC2)nn(-c2ccc(Cl)cc2Cl)c1-c1ccc(Br)cc1 [crystalline surinabant, N-piperidino-5-(4-bromophenyl)-1-(2,4-dichlorophenyl)-4-ethylpyrazole-3-carboxamide]
- rate of intrinsic dissolution [2]: 0.2 mg.min^−1.cm^−2

SMILES: CCc1c(C(=O)NN2CCCCC2)nn(-c2ccc(Cl)cc2Cl)c1-c1ccc(Br)cc1 [surinabant, N-piperidino-5-(4-bromophenyl)-1-(2,4-dichlorophenyl)-4-ethylpyrazole-3-carboxamide]
- solubility [3]: 1 µg/mL (≈ 1.91 µM)
- Papp [4]: 9.6 ×10⁻⁶ cm/s
